According to the NIST ThermoML archive (doi:10.1016/j.jct.2005.01.007):
Values joined by “and” are separate entries in the source; they are usually repeats but may differ in a detail not shown here. Equal entries are not always repeated. ± gives the expanded uncertainty stated by the source.

Assays:
[1] = xn = mol fraction of the nth substance listed; details: 101 kPa, Liquid
[2] = refractive index (Na D-line) (dimensionless); details: 298.15 K; 101.33 kPa; Liquid; Standard Abbe refractometry
[3] = 101 kPa, Liquid

CCCCc1ccccc1 [butylbenzene] + CCC(=O)c1ccccc1
[1], x1 = 1
Details | mass density [kg/m3]
298.15 K | 856.23 ± 0.48
328.15 K | 832.29 ± 0.52

CCC(=O)c1ccccc1 [ethyl phenyl ketone] + CCCCc1ccccc1
mass density [kg/m3], [1]
Details | 298.15 K | 328.15 K
x2 = 0 | 1005.29 ± 0.22 | 979.54 ± 0.24
x2 = 0.0906 | 989.98 ± 0.23 | 964.4 ± 0.27
x2 = 0.1842 | 974.56 ± 0.26 | 949.13 ± 0.3
x2 = 0.2739 | 960.14 ± 0.29 | 934.89 ± 0.33
x2 = 0.3688 | 945.31 ± 0.32 | 920.21 ± 0.36
x2 = 0.4531 | 932.45 ± 0.34 | 907.51 ± 0.38
x2 = 0.5519 | 917.76 ± 0.37 | 893 ± 0.41
x2 = 0.6164 | 908.4 ± 0.38 | 883.77 ± 0.43
x2 = 0.711 | 894.97 ± 0.41 | 870.51 ± 0.45
x2 = 0.8053 | 881.97 ± 0.43 | 857.68 ± 0.48
x2 = 0.9044 | 868.69 ± 0.46 | 844.57 ± 0.5

c1ccccc1 [benzene]
Details | refractive index
[2] | 1.4979 ± 0.0007

[3]
Details | mass density [kg/m3]
298.15 K | 873.62 ± 0.42
328.15 K | 841.52 ± 0.48

Cc1ccccc1 [toluene]
Details | refractive index
[2] | 1.4941 ± 0.0007

[3]
Details | mass density [kg/m3]
298.15 K | 862.25 ± 0.44
328.15 K | 834.25 ± 0.5

CCc1ccccc1 [ethylbenzene] + CCC(=O)c1ccccc1
[1], x1 = 1
Details | mass density [kg/m3]
298.15 K | 862.26 ± 0.46
328.15 K | 835.86 ± 0.51

CCC(=O)c1ccccc1 [ethyl phenyl ketone] + c1ccccc1
mass density [kg/m3], [1]
Details | 298.15 K | 328.15 K
x2 = 0 | 1005.24 ± 0.22 | 979.46 ± 0.24
x2 = 0.1079 | 995.49 ± 0.21 | 969.44 ± 0.26
x2 = 0.1982 | 986.83 ± 0.22 | 960.49 ± 0.27
x2 = 0.2725 | 979.24 ± 0.23 | 952.7 ± 0.28
x2 = 0.3691 | 968.74 ± 0.25 | 941.82 ± 0.3
x2 = 0.4557 | 958.59 ± 0.27 | 931.35 ± 0.32
x2 = 0.5205 | 950.57 ± 0.28 | 922.98 ± 0.33
x2 = 0.6278 | 936.19 ± 0.3 | 907.95 ± 0.36
x2 = 0.7441 | 919.01 ± 0.33 | 889.82 ± 0.39
x2 = 0.8198 | 906.77 ± 0.35 | 876.8 ± 0.41
x2 = 0.8966 | 893.38 ± 0.38 | 862.6 ± 0.44

CCc1ccccc1 [ethylbenzene]
Details | refractive index
[2] | 1.4931 ± 0.0007

[3]
Details | mass density [kg/m3]
298.15 K | 862.26 ± 0.46
328.15 K | 835.86 ± 0.51

c1ccccc1 [benzene] + CCC(=O)c1ccccc1
[1], x1 = 1
Details | mass density [kg/m3]
298.15 K | 873.62 ± 0.42
328.15 K | 841.52 ± 0.48

CCC(=O)c1ccccc1 [ethyl phenyl ketone] + Cc1ccccc1
mass density [kg/m3], [1]
Details | 298.15 K | 328.15 K
x2 = 0 | 1005.26 ± 0.22 | 979.48 ± 0.24
x2 = 0.09253 | 995.05 ± 0.21 | 969.14 ± 0.26
x2 = 0.1872 | 984.09 ± 0.23 | 958.07 ± 0.27
x2 = 0.2777 | 973.13 ± 0.24 | 946.96 ± 0.29
x2 = 0.3634 | 962.24 ± 0.26 | 935.91 ± 0.31
x2 = 0.4547 | 950.09 ± 0.28 | 923.57 ± 0.33
x2 = 0.5572 | 935.66 ± 0.31 | 908.94 ± 0.36
x2 = 0.6402 | 923.36 ± 0.33 | 896.42 ± 0.38
x2 = 0.7203 | 910.9 ± 0.35 | 883.78 ± 0.4
x2 = 0.8278 | 893.2 ± 0.38 | 865.77 ± 0.44
x2 = 0.9099 | 878.86 ± 0.41 | 851.18 ± 0.46

CCC(=O)c1ccccc1 [ethyl phenyl ketone] + CCc1ccccc1
mass density [kg/m3], [1]
Details | 298.15 K | 328.15 K
x2 = 0 | 1005.29 ± 0.22 | 979.5 ± 0.24
x2 = 0.1025 | 992.18 ± 0.23 | 966.3 ± 0.27
x2 = 0.1878 | 981.02 ± 0.24 | 955.11 ± 0.29
x2 = 0.2741 | 969.49 ± 0.26 | 943.55 ± 0.31
x2 = 0.3668 | 956.85 ± 0.29 | 930.84 ± 0.33
x2 = 0.4491 | 945.37 ± 0.31 | 919.32 ± 0.36
x2 = 0.5504 | 930.94 ± 0.33 | 904.84 ± 0.38
x2 = 0.6359 | 918.44 ± 0.36 | 892.32 ± 0.4
x2 = 0.7246 | 905.22 ± 0.38 | 879.02 ± 0.43
x2 = 0.831 | 888.99 ± 0.41 | 862.68 ± 0.46
x2 = 0.9093 | 876.76 ± 0.43 | 850.4 ± 0.48

CCCCc1ccccc1 [butylbenzene]
Details | refractive index
[2] | 1.4874 ± 0.0007

[3]
Details | mass density [kg/m3]
298.15 K | 856.23 ± 0.48
328.15 K | 832.29 ± 0.52

Cc1ccccc1 [toluene] + CCC(=O)c1ccccc1
[1], x1 = 1
Details | mass density [kg/m3]
298.15 K | 862.25 ± 0.44
328.15 K | 834.25 ± 0.5

CCC(=O)c1ccccc1 [ethyl phenyl ketone]
Details | refractive index
[2] | 1.5245 ± 0.0007

[3]
Details | mass density
298.15 K | 1005.24 ± 0.22 kg/m3 and 1005.26 ± 0.22 kg/m3 and 1005.29 ± 0.22 kg/m3
328.15 K | 979.5 ± 0.24 kg/m3 [middle of 4 runs]
